Test results published in patent US12351570B2 (MERCK PATENT GMBH, priority 2018, dated 2025).
pIC50: −log10 of the molar value.

These molecules were tested on MDA-MB-231 cells (assay: Extracellular lactate production inhibition after 4 h, MDA-MB-231). Conditions: Homo sapiens, MDA-MB-231.
Protocol: Extracellular Lactate Production Inhibition after 4 h
Cells were plated in growth media supplemented with 10% FBS, followed by overnight recovery at 37° C., 5% CO2. […] Plates were then moved for 4 h incubation at 37° C., 5% CO2 with subsequent 20 μl media transfer to empty 384-well transparent plates. […] Plates were short-spun and measured kinetically in absorbance mode (530 nm, 12 min measurement time with 2-minute intervals between subsequent readouts at 30° C.). Differences in the signal between T8 min and T0min were normalized to vehicle (cells w/ 0.25% DMSO) and quasi-positive (LCIS buffer w/ 0.25% DMSO) controls and plotted against logarithmically-transformed test compound concentrations with fitting the 4-parameter model in GraphPad Prism software.
`O=C(O)c1ccc(C#Cc2ccccc2NS(=O)(=O)c2csc3ccccc23)cc1` [Compound 83] showed a pIC50 of 6.00 to 7.00.
`O=C(O)c1ccc(C#Cc2ccccc2NS(=O)(=O)c2cccc3ccccc23)c2ccccc12` [Compound 84, 4-{2-[2-(naphthalene-1-sulfonamido)phenyl]ethynyl}-naphthalene-1-carboxylic acid] gave a pIC50 of 4.00 to 6.00.
With `Cc1ccccc1-c1cccc(S(=O)(=O)Nc2ccccc2C#Cc2ccc(C(=O)O)cc2)c1` [Compound 86, 4-[2-(2-{2′-methyl-[1,1′-biphenyl]-3-sulfonamido}phenyl)ethynyl]benzoic acid] the pIC50 was 4.00 to 6.00.
`O=C(O)c1ccc(C#Cc2ccccc2NS(=O)(=O)c2ccc3c(c2)Cc2ccccc2-3)cc1` [Compound 87, 4-{2-[2-(9H-fluorene-2-sulfonamido)phenyl]ethynyl}benzoic acid] showed a pIC50 of 6.00 to 7.00.
`Cc1cc(C(=O)O)ncc1C#Cc1ccccc1NS(=O)(=O)c1cccc2ccccc12` [Compound 88, 4-methyl-5-{2-[2-(naphthalene-1-sulfonamido)phenyl]ethynyl}pyridine-2-carboxylic acid] showed a pIC50 of 6.00 to 7.00.
Work on `O=C(O)c1ccc(C#Cc2ccccc2NS(=O)(=O)c2cc3ccccc3o2)cn1` [Compound 89, 5-{2-[2-(1-benzofuran-2-sulfonamido)phenyl]ethynyl}pyridine-2-carboxylic acid] yielded a pIC50 of 4.00 to 6.00.
`O=C(O)c1ccc(C#Cc2ccccc2NS(=O)(=O)N2CCc3ccccc3C2)cc1` [Compound 90, 4-(2-{2-[(1,2,3,4-tetrahydroisoquinoline-2-sulfonyl)amino]phenyl}ethynyl)benzoic acid] was tested, and the pIC50 was 4.00 to 6.00.
`COc1cnc2cc(S(=O)(=O)Nc3ccccc3C#Cc3ccc(C(=O)O)nc3)ccc2n1` [Compound 91, 5-{2-[2-(2-methoxyquinoxaline-6-sulfonamido)phenyl]ethynyl}pyridine-2-carboxylic acid] was tested, and the pIC50 was 4.00 to 6.00.
`O=C(O)c1ccc(C#Cc2ccccc2NS(=O)(=O)c2ccc3c(c2)Cc2ccccc2-3)cn1` [Compound 92, 5-{2-[2-(9H-fluorene-2-sulfonamido)phenyl]ethynyl}pyridine-2-carboxylic acid] showed a pIC50 of 7.00 to 8.00.
Work on `O=C(O)c1ccc(C#Cc2ccccc2NS(=O)(=O)C2Cc3ccccc3C2)cc1` [Compound 93, 4-{2-[2-(2,3-dihydro-1H-indene-2-sulfonamido)phenyl]ethynyl}benzoic acid] yielded a pIC50 of 4.00 to 6.00.
For `Cc1ccccc1-c1cccc(S(=O)(=O)Nc2ccccc2C#Cc2ccc(C(=O)O)nc2)c1` [Compound 94, 5-[2-(2-{2′-methyl-[1,1′-biphenyl]-3-sulfonamido}phenyl)ethynyl]pyridine-2-carboxylic acid], the pIC50 was 4.00 to 6.00.
`O=C(O)c1ccc(C#Cc2ccccc2NS(=O)(=O)c2cccc(Br)c2)cn1` [Compound 95, 5-{2-[2-(3-bromobenzenesulfonamido)phenyl]-ethynyl}pyridine-2-carboxylic acid] gave a pIC50 of 4.00 to 6.00.
Work on `O=C(O)c1ccc(C#Cc2ccccc2NS(=O)(=O)c2cccc(-c3ccccc3)c2)cn1` [Compound 96, 5-[2-(2-{[1,1′-biphenyl]-3-sulfonamido}phenyl)ethynyl]pyridine-2-carboxylic acid] yielded a pIC50 of 6.00 to 7.00.
Work on `Cc1c(S(=O)(=O)Nc2ccccc2C#Cc2ccc(C(=O)O)nc2)ccc2ccccc12` [Compound 97, 5-{2-[2-(1-methylnaphthalene-2-sulfonamido)phenyl]ethynyl}pyridine-2-carboxylic acid] yielded a pIC50 of 6.00 to 7.00.
`O=C(O)c1ccc(C#Cc2ccccc2NS(=O)(=O)c2c(Cl)nc3sccn23)cn1` [Compound 98, 5-[2-(2-{6-chloroimidazo[2,1-b][1,3]thiazole-5-sulfonamido}phenyl)-ethynyl]pyridine-2-carboxylic acid] was tested, and the pIC50 was 4.00 to 6.00.
`O=C(O)c1ccc(C#Cc2ccccc2NS(=O)(=O)c2ccc(Cl)c3nonc23)cn1` [Compound 99, 5-{2-[2-(7-chloro-2,1,3-benzoxadiazole-4-sulfonamido)phenyl]ethynyl}pyridine-2-carboxylic acid] showed a pIC50 of 4.00 to 6.00.
`Cc1ccc2cccnc2c1S(=O)(=O)Nc1ccccc1C#Cc1ccc(C(=O)O)nc1C` [Compound 100, 6-methyl-5-{2-[2-(7-methylquinoline-8-sulfonamido)phenyl]ethynyl}pyridine-2-carboxylic acid] showed a pIC50 of 4.00 to 6.00.
With `O=C(O)c1ccc(C#Cc2c(F)cccc2NS(=O)(=O)c2cccc3cccnc23)cn1` [Compound 101, 5-{2-[2-fluoro-6-(quinoline-8-sulfonamido)phenyl]ethynyl}pyridine-2-carboxylic acid] the pIC50 was 4.00 to 6.00.
Work on `Cc1cc(C#Cc2ccccc2NS(=O)(=O)c2c(C)ccc3cccnc23)cnc1C(=O)O` [Compound 102, 3-methyl-5-{2-[2-(7-methylquinoline-8-sulfonamido)phenyl]ethynyl}pyridine-2-carboxylic acid] yielded a pIC50 of 7.00 to 8.00.
Work on `O=C(O)c1ccc(C#Cc2ccccc2NS(=O)(=O)N2CCC3CCCCC3C2)cn1` (stereo not shown) [Compound 103, 5-(2-{2-[(decahydroisoquinoline-2-sulfonyl)amino]phenyl}ethynyl)pyridine-2-carboxylic acid] yielded a pIC50 of 6.00 to 7.00.
With `O=C(O)c1ccc(C#Cc2ccccc2NS(=O)(=O)c2csc3ccccc23)cn1` [Compound 104, 5-{2-[2-(1-benzothiophene-3-sulfonamido)phenyl]ethynyl}pyridine-2-carboxylic acid] the pIC50 was 6.00 to 7.00.
`O=C(O)c1ccc(C#Cc2ccccc2NS(=O)(=O)c2cccc(N3CCOCC3)c2)cn1` [Compound 105, 5-(2-{2-[3-(morpholin-4-yl)benzenesulfonamido]phenyl}-ethynyl)pyridine-2-carboxylic acid] was tested, and the pIC50 was 4.00 to 6.00.
Work on `Cc1ccc2cccnc2c1S(=O)(=O)Nc1c(F)cccc1C#Cc1ccc(C(=O)O)nc1` [Compound 106, 5-{2-[3-fluoro-2-(7-methylquinoline-8-sulfonamido)phenyl]ethynyl}pyridine-2-carboxylic acid] yielded a pIC50 of 4.00 to 6.00.
In the case of `Cc1cc(C(=O)O)ncc1C#Cc1ccccc1NS(=O)(=O)c1c(C)ccc2cccnc12` [Compound 107, 4-methyl-5-{2-[2-(7-methylquinoline-8-sulfonamido)phenyl]ethynyl}pyridine-2-carboxylic acid], the pIC50 was 7.00 to 8.00.
`O=C(O)c1ccc(C#Cc2ccccc2NS(=O)(=O)c2cccc3c2oc2ccccc23)cn1` [Compound 108, 5-[2-(Dibenzofuran-4-sulfonylamino)-phenylethynyl]-pyridine-2-carboxylic acid (5-[2-(2-{8-oxatricyclo[7.4.0.0^2,7]trideca-1(9),2,4,6,10,12-hexaene-6-sulfonamido}phenyl)ethynyl]pyridine-2-carboxylic acid)] showed a pIC50 of 7.00 to 8.00.
With `O=C(O)c1ccc(C#Cc2ccccc2NS(=O)(=O)c2cccc3scnc23)cn1` [Compound 109, 5-{2-[2-(1,3-benzothiazole-4-sulfonamido)phenyl]ethynyl}pyridine-2-carboxylic acid] the pIC50 was 6.00 to 7.00.
`COc1ccc(S(=O)(=O)Nc2ccccc2C#Cc2cnc(C(=O)O)cc2C)c2ncccc12` [Compound 110, 5-{2-[2-(5-methoxyquinoline-8-sulfonamido)phenyl]ethynyl}-4-methylpyridine-2-carboxylic acid] was tested, and the pIC50 was 7.00 to 8.00.
For `O=C(O)c1ccc(C#Cc2cc(F)ccc2NS(=O)(=O)c2cccc3cccnc23)cn1` [Compound 111, 5-{2-[5-fluoro-2-(quinoline-8-sulfonamido)phenyl]ethynyl}pyridine-2-carboxylic acid], the pIC50 was 6.00 to 7.00.
